Legend:
Cytochrome P450 2C19 = Cytochrome P450 2C19 (Homo sapiens, UniProt P33261); assay: Inhibition of CYP2C19 in human liver microsomes using (S)-Mephenytoin as substrate after 5 to 30 mins by LC-MS/MS analysis; format: ADME
Cytochrome P450 2E1 = Cytochrome P450 2E1 (Homo sapiens, UniProt P05181); assay: Inhibition of CYP2E1 in human liver microsomes using chlorzoxazone as substrate after 5 to 30 mins by LC-MS/MS analysis; format: ADME
Cytochrome P450 3A4 [1] = molecular target: T1, Cytochrome P450 3A4 (Homo sapiens, UniProt P08684); assay: Inhibition of CYP3A4 in human liver microsomes using testosterone as substrate after 5 to 30 mins by LC-MS/MS analysis; format: ADME
Cytochrome P450 1A2 = molecular target: T2, Cytochrome P450 1A2 (Homo sapiens, UniProt P05177); assay: Inhibition of CYP1A2 in human liver microsomes using phenacetin as substrate after 5 to 30 mins by LC-MS/MS analysis; format: ADME
T2 sequence (P05177 whole entry): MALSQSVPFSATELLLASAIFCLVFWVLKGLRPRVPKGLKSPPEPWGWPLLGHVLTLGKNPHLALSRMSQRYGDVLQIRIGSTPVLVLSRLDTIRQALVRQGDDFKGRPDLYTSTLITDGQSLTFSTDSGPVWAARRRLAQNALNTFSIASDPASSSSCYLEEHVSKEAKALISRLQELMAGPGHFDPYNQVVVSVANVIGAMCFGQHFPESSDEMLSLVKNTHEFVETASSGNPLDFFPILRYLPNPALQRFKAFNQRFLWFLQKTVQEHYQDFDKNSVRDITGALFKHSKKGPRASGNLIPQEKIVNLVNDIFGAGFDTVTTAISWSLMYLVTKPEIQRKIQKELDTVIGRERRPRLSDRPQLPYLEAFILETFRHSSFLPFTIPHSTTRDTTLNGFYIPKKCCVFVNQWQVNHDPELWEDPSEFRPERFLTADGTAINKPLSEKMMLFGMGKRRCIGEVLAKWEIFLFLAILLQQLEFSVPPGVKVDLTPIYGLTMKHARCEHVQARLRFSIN

Cytochrome P450 2D6 = Cytochrome P450 2D6 (Homo sapiens, UniProt P10635); assay: Inhibition of CYP2D6 in human liver microsomes using dextromethorphan as substrate after 5 to 30 mins by LC-MS/MS analysis; format: ADME
[2] = Drug metabolism in human liver microsomes assessed as CYP3A5*1/*1-compound formation after 15 mins by LC-MS/MS analysis in presence of UDPGA; format: ADME; conditions: 0.25 h
Cytochrome P450 2C9 = Cytochrome P450 2C9 (Homo sapiens, UniProt P11712); assay: Inhibition of CYP2C9 in human liver microsomes using diclofenac as substrate after 5 to 30 mins by LC-MS/MS analysis; format: ADME
Cytochrome P450 2B6 = molecular target: T3, Cytochrome P450 2B6 (Homo sapiens, UniProt P20813); assay: Inhibition of CYP2B6 in human liver microsomes using bupropion as substrate after 5 to 30 mins by LC-MS/MS analysis; format: ADME
T3 sequence (P20813 whole entry): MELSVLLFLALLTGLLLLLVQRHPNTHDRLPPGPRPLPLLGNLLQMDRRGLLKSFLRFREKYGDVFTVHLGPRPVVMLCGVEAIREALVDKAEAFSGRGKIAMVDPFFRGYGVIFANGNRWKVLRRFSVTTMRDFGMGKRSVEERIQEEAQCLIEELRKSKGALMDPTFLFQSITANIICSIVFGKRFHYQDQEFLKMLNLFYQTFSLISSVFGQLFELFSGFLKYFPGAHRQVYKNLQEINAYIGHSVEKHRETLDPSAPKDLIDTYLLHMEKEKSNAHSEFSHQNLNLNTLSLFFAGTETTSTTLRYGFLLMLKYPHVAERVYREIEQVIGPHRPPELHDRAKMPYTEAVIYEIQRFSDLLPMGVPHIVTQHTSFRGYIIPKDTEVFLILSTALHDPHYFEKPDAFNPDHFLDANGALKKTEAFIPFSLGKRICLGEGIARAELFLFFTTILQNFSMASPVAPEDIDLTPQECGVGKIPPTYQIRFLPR

Cytochrome P450 2C8 [3] = molecular target: T4, Cytochrome P450 2C8 (Homo sapiens, UniProt P10632); assay: Biphasic inhibition of CYP2C8 in human liver microsomes assessed as montelukast 36-hydroxylation after 20 mins by LC-MS/MS analysis; format: ADME
T4 sequence (P10632 whole entry): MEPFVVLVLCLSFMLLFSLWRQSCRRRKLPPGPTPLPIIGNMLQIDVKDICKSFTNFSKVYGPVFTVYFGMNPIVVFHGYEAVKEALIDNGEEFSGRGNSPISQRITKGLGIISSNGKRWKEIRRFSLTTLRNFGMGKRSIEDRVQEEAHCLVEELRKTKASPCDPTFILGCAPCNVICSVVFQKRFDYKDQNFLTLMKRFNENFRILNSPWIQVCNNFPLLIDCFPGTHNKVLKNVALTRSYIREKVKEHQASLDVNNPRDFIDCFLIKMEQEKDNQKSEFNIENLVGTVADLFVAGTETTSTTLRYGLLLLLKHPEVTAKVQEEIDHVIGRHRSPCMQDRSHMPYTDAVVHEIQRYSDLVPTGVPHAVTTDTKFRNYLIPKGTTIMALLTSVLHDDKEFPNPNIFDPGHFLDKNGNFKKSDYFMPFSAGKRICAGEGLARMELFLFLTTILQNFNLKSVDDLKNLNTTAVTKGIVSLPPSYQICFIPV

Cytochrome P450 3A4 [4] = molecular target: T1, Cytochrome P450 3A4; assay: Inhibition of CYP3A4 in human liver microsomes using midazolam as substrate after 5 to 30 mins by LC-MS/MS analysis; format: ADME
Cytochrome P450 2C8 [5] = molecular target: T4, Cytochrome P450 2C8; assay: Inhibition of CYP2C8 in human liver microsomes assessed as paclitaxel 6-hydroxylation after 5 to 30 mins by LC-MS/MS analysis; format: ADME
Cytochrome P450 3A5 = Cytochrome P450 3A5 (Homo sapiens, UniProt P20815); assay: Drug metabolism assessed as recombinant CYP3A5 (unknown origin)-mediated 2-(4-(4-(tert-butylcarbamoyl)-2-(2-chloro-4-(1-hydroxycyclopropyl)phenylsulfonamido)phenoxy)-5-chloro-2-fluorophenyl)acetic acid formation at 10 uM after 30 mins by LC-MS/MS analysis; format: ADME; conditions: recombinant enzyme, 0.5 h
[6] = Fraction unbound in plasma (unknown origin); format: ADME, cell-free
[7] = molecular target: UDP-glucuronosyltransferase 2B17 (Homo sapiens, UniProt O75795); assay: Drug metabolism assessed as human recombinant UGT2B17-mediated (2S,3S,4S,5R,6S)-6-(2-(4-(4-(tert-butylcarbamoyl)-2-(2-chloro-4-cyclopropylphenylsulfonamido)phenoxy)-5-chloro-2-fluorophenyl)acetoxy)-3,4,5-trihydroxytetrahydro-2H-pyran-2-carboxylic acid formation at 10 uM after 30 mins by LC-MS/MS analysis; format: ADME; conditions: recombinant enzyme, 0.5 h
CYP3A4 = CYP3A4 (Homo sapiens, UniProt P08684); assay: Induction of CYP3A4 in human hepatocytes using midazolam as substrate at 0.3 to 30 uM treated every 24 hrs for 2 days measured on day 5 by LC-MS/MS analysis relative to control
[8] = AUC (0 to infinity) in healthy human at 50 mg, po; format: ADME, organism-based; design: dose 50 mg, route oral, time infinity; conditions: plasma
[9] = Drug metabolism in human liver microsomes assessed as […]-mediated (2S,3S,4S,5R,6S)-6-(2-(4-(4-(tert-butylcarbamoyl)-2-(2-chloro-4-cyclopropylphenylsulfonamido)phenoxy)-5-chloro-2-fluorophenyl)acetoxy)-3,4,5-trihydroxytetrahydro-2H-pyran-2-carboxylic acid formation after 15 mins by LC-MS/MS analysis in presence of UDPGA; format: ADME; conditions: 0.25 h

Chain of Cytochrome P450 2D6 (P10635 whole entry): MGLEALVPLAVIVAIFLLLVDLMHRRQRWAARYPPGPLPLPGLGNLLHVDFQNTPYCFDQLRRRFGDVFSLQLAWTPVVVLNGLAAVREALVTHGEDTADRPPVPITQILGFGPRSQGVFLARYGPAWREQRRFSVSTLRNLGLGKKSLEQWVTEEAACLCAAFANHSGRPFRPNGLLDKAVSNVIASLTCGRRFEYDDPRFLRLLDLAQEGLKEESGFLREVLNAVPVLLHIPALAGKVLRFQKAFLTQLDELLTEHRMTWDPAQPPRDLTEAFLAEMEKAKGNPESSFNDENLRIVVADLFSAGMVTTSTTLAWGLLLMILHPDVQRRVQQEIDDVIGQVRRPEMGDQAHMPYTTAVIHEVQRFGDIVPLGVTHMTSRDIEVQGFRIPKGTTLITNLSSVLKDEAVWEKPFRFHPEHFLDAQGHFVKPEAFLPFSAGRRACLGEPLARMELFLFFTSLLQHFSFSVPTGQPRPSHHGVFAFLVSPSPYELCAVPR
Chain of Cytochrome P450 2E1 (P05181 whole entry): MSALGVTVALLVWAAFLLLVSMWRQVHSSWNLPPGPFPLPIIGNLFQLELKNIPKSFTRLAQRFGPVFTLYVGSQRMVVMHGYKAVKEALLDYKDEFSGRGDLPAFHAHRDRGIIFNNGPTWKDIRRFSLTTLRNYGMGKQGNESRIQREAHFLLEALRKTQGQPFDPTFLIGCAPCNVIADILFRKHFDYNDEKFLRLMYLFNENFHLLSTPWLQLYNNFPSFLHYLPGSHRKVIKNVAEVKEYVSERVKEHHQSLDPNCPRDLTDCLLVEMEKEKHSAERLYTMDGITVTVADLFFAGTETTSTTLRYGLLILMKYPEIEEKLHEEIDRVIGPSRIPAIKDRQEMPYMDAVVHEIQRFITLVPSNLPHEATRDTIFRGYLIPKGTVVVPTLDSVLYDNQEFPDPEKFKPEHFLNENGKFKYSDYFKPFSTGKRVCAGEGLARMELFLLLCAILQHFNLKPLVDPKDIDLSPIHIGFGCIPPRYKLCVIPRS
T1 sequence (P08684 whole entry): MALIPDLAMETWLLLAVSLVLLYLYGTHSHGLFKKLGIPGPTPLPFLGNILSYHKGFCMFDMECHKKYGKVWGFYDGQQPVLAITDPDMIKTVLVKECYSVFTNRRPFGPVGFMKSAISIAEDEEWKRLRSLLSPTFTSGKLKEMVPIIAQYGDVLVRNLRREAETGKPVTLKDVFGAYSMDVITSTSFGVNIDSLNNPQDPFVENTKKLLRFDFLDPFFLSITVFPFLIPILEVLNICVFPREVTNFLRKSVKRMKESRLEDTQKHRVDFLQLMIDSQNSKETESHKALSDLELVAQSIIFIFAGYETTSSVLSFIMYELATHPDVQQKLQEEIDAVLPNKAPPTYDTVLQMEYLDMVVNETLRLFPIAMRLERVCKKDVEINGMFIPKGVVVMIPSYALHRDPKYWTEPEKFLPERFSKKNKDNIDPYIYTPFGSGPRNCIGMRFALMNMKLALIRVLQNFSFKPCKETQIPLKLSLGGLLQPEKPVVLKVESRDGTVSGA
Chain of Cytochrome P450 2C19 (P33261 whole entry): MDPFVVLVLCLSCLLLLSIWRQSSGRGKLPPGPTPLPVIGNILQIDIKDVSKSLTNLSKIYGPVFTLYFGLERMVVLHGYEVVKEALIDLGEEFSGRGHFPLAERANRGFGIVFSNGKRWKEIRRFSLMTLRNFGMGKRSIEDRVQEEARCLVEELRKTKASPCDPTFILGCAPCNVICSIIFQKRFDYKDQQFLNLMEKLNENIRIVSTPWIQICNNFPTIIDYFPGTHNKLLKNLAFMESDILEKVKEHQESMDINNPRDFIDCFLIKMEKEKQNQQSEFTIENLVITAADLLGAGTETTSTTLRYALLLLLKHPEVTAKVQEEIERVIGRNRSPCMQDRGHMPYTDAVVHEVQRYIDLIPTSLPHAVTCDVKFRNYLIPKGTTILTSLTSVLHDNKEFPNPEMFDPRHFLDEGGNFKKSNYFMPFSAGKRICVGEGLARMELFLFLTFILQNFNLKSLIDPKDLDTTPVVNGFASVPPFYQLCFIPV
Chain of Cytochrome P450 2C9 (P11712 whole entry): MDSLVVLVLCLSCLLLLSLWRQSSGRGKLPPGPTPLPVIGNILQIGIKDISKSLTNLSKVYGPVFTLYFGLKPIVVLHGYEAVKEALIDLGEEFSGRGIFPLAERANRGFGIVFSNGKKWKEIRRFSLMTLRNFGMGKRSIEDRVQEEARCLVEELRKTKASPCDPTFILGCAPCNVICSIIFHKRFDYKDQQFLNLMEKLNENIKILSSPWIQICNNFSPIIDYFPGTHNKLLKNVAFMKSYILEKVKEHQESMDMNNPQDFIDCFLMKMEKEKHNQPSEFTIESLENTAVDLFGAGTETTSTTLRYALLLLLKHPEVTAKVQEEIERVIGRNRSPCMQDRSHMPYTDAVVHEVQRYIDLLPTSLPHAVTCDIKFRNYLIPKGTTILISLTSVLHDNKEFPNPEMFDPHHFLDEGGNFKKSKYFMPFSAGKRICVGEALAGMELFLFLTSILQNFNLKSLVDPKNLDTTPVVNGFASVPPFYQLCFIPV
Chain of Cytochrome P450 3A5 (P20815 whole entry): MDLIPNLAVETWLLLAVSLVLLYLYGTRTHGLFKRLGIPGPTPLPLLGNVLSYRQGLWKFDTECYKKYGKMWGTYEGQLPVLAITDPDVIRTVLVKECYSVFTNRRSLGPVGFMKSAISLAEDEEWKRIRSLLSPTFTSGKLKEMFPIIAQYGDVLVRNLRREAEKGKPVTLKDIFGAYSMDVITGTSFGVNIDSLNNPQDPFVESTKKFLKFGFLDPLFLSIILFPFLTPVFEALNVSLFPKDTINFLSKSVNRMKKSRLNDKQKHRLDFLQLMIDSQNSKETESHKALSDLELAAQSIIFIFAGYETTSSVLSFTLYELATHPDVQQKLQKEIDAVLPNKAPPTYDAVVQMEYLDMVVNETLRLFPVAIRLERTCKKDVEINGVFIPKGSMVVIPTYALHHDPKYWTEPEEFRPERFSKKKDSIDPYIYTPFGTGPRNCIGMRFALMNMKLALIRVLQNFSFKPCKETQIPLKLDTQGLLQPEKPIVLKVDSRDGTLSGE
Chain of UDP-glucuronosyltransferase 2B17 (O75795 whole entry): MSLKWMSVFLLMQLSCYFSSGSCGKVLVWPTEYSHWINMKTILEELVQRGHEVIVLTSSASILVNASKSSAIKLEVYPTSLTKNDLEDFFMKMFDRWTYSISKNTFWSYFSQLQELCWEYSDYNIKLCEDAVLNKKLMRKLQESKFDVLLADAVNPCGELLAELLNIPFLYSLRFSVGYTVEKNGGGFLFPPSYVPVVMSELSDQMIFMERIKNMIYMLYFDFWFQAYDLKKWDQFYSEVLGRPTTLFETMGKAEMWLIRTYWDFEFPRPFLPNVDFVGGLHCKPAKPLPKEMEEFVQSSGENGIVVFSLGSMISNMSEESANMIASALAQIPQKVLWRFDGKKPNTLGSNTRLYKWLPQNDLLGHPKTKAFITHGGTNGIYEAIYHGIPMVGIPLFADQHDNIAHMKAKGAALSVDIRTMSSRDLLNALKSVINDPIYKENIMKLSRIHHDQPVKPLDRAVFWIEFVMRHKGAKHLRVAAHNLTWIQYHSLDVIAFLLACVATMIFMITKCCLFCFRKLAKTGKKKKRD
Chain of CYP3A4 (P08684 whole entry): as the sequence (P08684 whole entry) above

`CC(C)(C)NC(=O)c1ccc(Oc2cc(F)c(CC(=O)O[C@@H]3O[C@H](C(=O)O)[C@@H](O)[C@H](O)[C@H]3O)cc2Cl)c(NS(=O)(=O)c2ccc(C3CC3)cc2Cl)c1` gave a Ki (Cytochrome P450 2C19) of over 30 µM, a Ki (Cytochrome P450 2E1) of over 30 µM and a Ki (Cytochrome P450 3A4 [1]) of over 30 µM. The Ki (Cytochrome P450 1A2) was over 30 µM, the Ki (Cytochrome P450 2D6) was over 30 µM and the Drug metabolism [2] was “metabolite_detected”. For the same compound, the Ki (Cytochrome P450 2C9) was over 30 µM, the Ki (Cytochrome P450 2B6) was over 30 µM and the Ki (Cytochrome P450 2C8 [3]) was 7.3 µM. For the same compound, the Ki (Cytochrome P450 3A4 [4]) was over 30 µM.
With `CC(C)(C)NC(=O)c1ccc(Oc2cc(F)c(CC(=O)O)cc2Cl)c(NS(=O)(=O)c2ccc(C3CC3)cc2Cl)c1` [VIDUPIPRANT] the IC50 (Cytochrome P450 2C19) was at least 30 µM, the Ki (Cytochrome P450 2C19) was over 30 µM and the IC50 (Cytochrome P450 2E1) was at least 30 µM. The Ki (Cytochrome P450 2E1) was over 30 µM, the IC50 (Cytochrome P450 3A4 [1]) was at least 30 µM and the Ki (Cytochrome P450 3A4 [1]) was over 30 µM. For the same compound, the IC50 (Cytochrome P450 1A2) was at least 30 µM, the Ki (Cytochrome P450 1A2) was over 30 µM and the IC50 (Cytochrome P450 2C8 [5]) was 5.4 µM. For the same compound, the Drug metabolism (Cytochrome P450 3A5) was “metabolite_detected”, the IC50 (Cytochrome P450 2D6) was at least 30 µM and the Ki (Cytochrome P450 2D6) was over 30 µM. The fraction unbound [6] was 0.003, the IC50 (Cytochrome P450 2C9) was at least 30 µM and the Ki (Cytochrome P450 2C9) was over 30 µM. For the same compound, the Drug metabolism [7] was “metabolite_not_detected”, the fold induction at 48 h, 30 µM (CYP3A4) was 1.4 and the AUC(0-inf) [8] was 671 ng·h/mL. For the same compound, the IC50 (Cytochrome P450 2B6) was at least 30 µM, the Ki (Cytochrome P450 2B6) was over 30 µM and the Ki (Cytochrome P450 2C8 [3]) was 1.8 µM. For the same compound, the IC50 (Cytochrome P450 3A4 [4]) was at least 30 µM, the Ki (Cytochrome P450 3A4 [4]) was over 30 µM and the Drug metabolism [9] was “metabolite_detected”.

Source: ChEMBL document CHEMBL3526017, “Predicting the drug interaction potential of AMG 853, a dual antagonist of the D-prostanoid and chemoattractant receptor-homologous molecule expressed on T helper 2 cells receptors” (Drug Metab Dispos, 2012)
